In EP1375483A1, “6-CHLORO-3-PYRIDYLMETHYLPROPYLAMINE DERIVATIVES, PREPARATION PROCESS THEREOF AND BACTERICIDES” (KUREHA KAGAKU KOGYO KABUSHIKI KAISHA, priority 2001, dated 2001):
Where two headings read alike, the source gives them in different places.

Experiments:
wheat powdery mildew [1] = assay: Test of control effect on wheat powdery mildew (Test Example 1); assay type: in vivo; details: wettable powder 125 mg/l, 100 liters/10 a, sprinkled on wheat seedlings (Nourin 64) before inoculation, examined 9th to 14th day after inoculation; for pest or weed control at 125 µg/mL: Triticum aestivum
Procedure: Wettable powders were prepared from compounds of the present invention I-1 to I-27 and comparative compounds (a) to (d) , (m-1) and (m-3). The obtained wettable powder was diluted and suspended with water to provide the predetermined concentration (125 mg/l), and was sprinkled onto seedlings of wheat (variety: "Nourin 64") at the first to the second leaf period which were cultivated using square plastic pots (size: 6.4 cm x 6.4 cm) in a rate of 100 liters/10 a (ares). After drying the sprinkled leaves with air, a suspension of wheat powdery mildew spores taken from infected leaves was inoculated by spraying onto the sprinkled leaves. They were supervised in a green house (temperature: 20 to 24°C, relative humidity: 20 to 70 RH). On the 9th to 14th day after the inoculation, the infection degree was examined according to the following scale and the control value of each compound was calculated by the following calculation equation 1. [table] (Equation 1) Control value = (1 - infection degree of treated zone/infection degree of untreated zone) x 100 (%) [formula] The control values of each compound are shown in Table 8.

cucumber powdery mildew = assay: Test of control effect on cucumber powdery mildew (Test Example 2); assay type: in vivo; details: wettable powder 100 mg/l, 100 liters/10 a, sprinkled on cucumbers (Sagamihanpakufushinari) before inoculation, examined 9th to 14th day after inoculation; for pest or weed control at 100 µg/mL: Cucumis sativus
Procedure: The wettable powders formulated by using each of the compounds I-1 to 27 according to the present invention and the comparative compounds (a) to (d), (m-1) and (m-3) were each diluted and suspended with water to a predetermined concentration (100 mg/l), the suspension was sprinkled over the first to the second leaf period cucumbers (variety: "[…]") cultivated by using a square plastic pot (size: 6. 4 cm x 6. 4 cm) in a rate of 100 liters/10 a (ares). After the sprinkled leaves were air-dried, the spores were inoculated over the leaves by sprinkling the same with a brush from an infected leaf, a disease was contracted in a glass house (temperature: 20 to 24°C, relative humidity: 20 to 70 RH). On the 9th to 14th day after the inoculation, the infection degree was examined according to the following scale and the control value of each compound was calculated by the following calculation equation 2: [table] (Equation 2) Control value = (1 - infection degree of treated zone/infection degree of untreated zone) x 100 (%) [formula] The control values of each compound are shown in Table 9.

Botrytis cinerea = assay: Antifungal activity test against various pathogenic fungi, hypha extension on PDA plates (Test Example 3); assay type: cell-based; details: read-out: Growth Inhibition B.c (1.6)
Microdochium nivale = assay: as above; assay type: cell-based; details: read-out: Growth Inhibition M.n (3.2)
Leptosphaeria nodorum = assay: as above; assay type: cell-based; details: Parastagonospora nodorum, read-out: Growth Inhibition L.n (0.8)
Rhynchosporium secalis = assay: as above; assay type: cell-based; details: read-out: Growth Inhibition R.s (100)
Pyrenophora graminea = assay: as above; assay type: cell-based; details: read-out: Growth Inhibition P.g (12.5)
Pyricularia oryzae = assay: microbe, parasite or virus in culture; assay type: cell-based; details: read-out: Growth Inhibition P.o (12.5)
Venturia inaequalis = assay: Antifungal activity test against various pathogenic fungi, hypha extension on PDA plates (Test Example 3); assay type: cell-based; details: read-out: Growth Inhibition V.i (3.2)
[2] = test system: Pseudocercosporella herpotrichoides; assay: as above; assay type: cell-based; details: Oculimacula yallundae, read-out: Growth Inhibition P.h (25)
Septoria tritici = assay: as above; assay type: cell-based; details: Zymoseptoria tritici, read-out: Growth Inhibition S.t (100)
wheat powdery mildew [3] = assay: Permeable mobility fungicidal effect test in leaf section of wheat powdery mildew (Test Example 4); assay type: in vivo
Procedure: In the test example 4, permeable mobility fungicidal effect test was performedon the leaf section of wheat powdery mildew with regard to the compounds I-1 to 27 according to the present invention and the comparative compounds (a) to (d), and (m-1) to (m-3) with the method described later. The compound in the form of a wettable powder obtained by Formulation 2 or the like was diluted and suspended with water to a predetermined concentration (200mg/l), and 0.5 µl of the suspension was applied to a 2 to 3 cm leaf portion from the root of the three leaves of the 4th to 4.5th leaf period wheat (variety: Abukumawase) cultured by using a square plastic pot (size: 6.4 cm x 6.4 cm). After these wheat leaves were subject to still standing in a glass house (temperature: 20 to 24C, relative humidity: 20 to 70 RH) for one day, the spores of wheat powdery mildew were inoculated over the leaves by sprinkling the same with a brush from an infected leaf, a disease was contracted in the same glass house. The length of a non-contracted area generated from the applied portion to the direction of the leaf top was measured, and a relative mobility to the compound (m-2) was calculated with the following calculation […] by using the comparative compound (m-2) as a standard compound. (Equation 4) Relative mobility = (Length of non-contracted area in each chemical section (cm)/Length of non-contracted area of compound (m-2) (cm)) [formula]

[4] = 1.6 ppm in PDA culture medium, cultured 1 to 7 days
[5] = 3.2 ppm in PDA culture medium, cultured 1 to 7 days
[6] = Leptosphaeria nodorum, 0.8 ppm in PDA culture medium, cultured 1 to 7 days
[7] = 100 ppm in PDA culture medium, cultured 1 to 7 days
[8] = 12.5 ppm in PDA culture medium, cultured 1 to 7 days
[9] = Pseudocercosporella herpotrichoides, 25 ppm in PDA culture medium, cultured 1 to 7 days
[10] = Septoria tritici, 100 ppm in PDA culture medium, cultured 1 to 7 days
[11] = length of non-contracted area relative to compound (m-2), 0.5 µl of 200 mg/l suspension applied to wheat leaf (Abukumawase), inoculated after one day

Row | Compound | pest or weed control at 125 µg/mL (wheat powdery mildew [1]) | pest or weed control at 100 µg/mL (cucumber powdery mildew) | inhibition at 1.6 ppm (Botrytis cinerea; [4]) | inhibition at 3.2 ppm (Microdochium nivale; [5]) | inhibition at 0.8 ppm (Leptosphaeria nodorum; [6]) | inhibition at 100 ppm (Rhynchosporium secalis; [7]) | inhibition at 12.5 ppm (Pyrenophora graminea; [8]) | inhibition at 12.5 ppm (Pyricularia oryzae) | inhibition at 3.2 ppm (Venturia inaequalis; [5]) | inhibition at 25 ppm [2, 9] | inhibition at 100 ppm (Septoria tritici; [10]) | Relative Mobility (wheat powdery mildew [3]; [11]) | other results
1 | CC(Cc1ccc(OC(F)(F)F)c(F)c1)CN(C)Cc1ccc(Cl)nc1 (stereo not drawn) [Compound I-17, 6-chloro-N-[3-(3-fluoro-4-trifluoromethoxyphenyl)-2-methylpropyl]-N-methyl-3-pyridylmethylamine] | 100% | 100% | > 90% | > 90% | > 90% | > 90% | 70 to 90% | 70 to 90% | 70 to 90% | > 90% | 70 to 90% | 10 | –
2 | CC(Cc1cc(F)c(OC(F)(F)F)c(F)c1)CN(C)Cc1ccc(Cl)nc1 (stereo not drawn) [Compound I-20, 6-chloro-N-[3-(3,5-difluoro-4-trifluoromethoxyphenyl)-2-methylpropyl]-N-methyl-3-pyridylmethylamine] | 100% | 100% | > 90% | 70 to 90% | > 90% | 70 to 90% | 70 to 90% | 70 to 90% | 70 to 90% | > 90% | 70 to 90% | 9 | –
3 | CC(Cc1cc(F)cc(Cl)c1)CN(C)Cc1ccc(Cl)nc1 (stereo not drawn) [Compound I-21, 6-chloro-N-[3-(3-chloro-5-fluorophenyl)-2-methylpropyl] -N-methyl-3-pyridylmethylamine] | 100% | 100% | > 90% | 70 to 90% | > 90% | > 90% | > 90% | 70 to 90% | 70 to 90% | > 90% | 70 to 90% | 9 | –
4 | CC(Cc1ccc2c(c1)OC(F)(F)O2)CN(C)Cc1ccc(Cl)nc1 (stereo not drawn) [Compound I-24] | – | – | – | – | – | – | – | 70 to 90% | – | – | – | – | Control Value (wheat powdery mildew [1]): 100%; Control Value (cucumber powdery mildew): 100%; inhibition at 1.6 ppm (Botrytis cinerea): 70 to 90%; inhibition at 3.2 ppm (Microdochium nivale): 70 to 90%; inhibition at 0.8 ppm (Leptosphaeria nodorum): > 90%; inhibition at 100 ppm (Rhynchosporium secalis): > 90%; inhibition at 12.5 ppm (Pyrenophora graminea): > 90%; inhibition at 3.2 ppm (Venturia inaequalis): 70 to 90%; inhibition at 25 ppm [2]: > 90%; inhibition at 100 ppm (Septoria tritici): 70 to 90%; Relative Mobility (wheat powdery mildew [3]; 24 h, 200 ug/mL): 6
